The subject of one series is hepatitis B virus (HBV). The experiment in a line: Anti-HBV activity in the PHH in vitro infection model (transfection or free uptake). In kind it is cell-based, HBV serotype D. The settings on record: for EC50: PHH infected with HBV serotype D, supernatant Day 8. How it is done:
Transfection and Drug Dosing: On Day 0, revived PHH were adjusted to an appropriate density (6.67E+05 cells/ml) and seeded into 48-well cell culture plates at 1.32E+05 cells per well. On Day 1, HBV serotype D was added to infect PHH (800 GE/cell). On Day 2, fresh medium was replaced. On Day 4, the cell culture medium was discarded, and the test compound was serially diluted to the required concentration, which were then introduced into the cells via transfection using Lipofectamine™ RNAiMAX. The starting concentration of the test compound was 500 pM, and 5-fold dilutions were performed. Seven concentrations were set up in duplicate, with wells containing only the transfection reagent as the medium control. Four to five hours after transfection, fresh medium without compound was replaced. The final DMSO concentration in the medium was 2%. On Day 6, fresh medium without compound was replaced. On Day 8, cell supernatants were harvested, and cell viability was assessed using CCK-8 assay.
Drug Administration via Ad libitum uptake : On day 0, the test compound was diluted to the desired concentration in enzyme-free water, starting at 500 nM. Five-fold dilutions were performed, each with seven concentrations, in duplicate, with 22 µl added to each well of the cell culture plate. Thawed frozen PHHs were plated to an appropriate density (6.67E+05 cells/ml), with 1.32E+05 cells per well. The cells were then plated and allowed to ad libitum uptake of the test compound. On day 1, the medium was changed, and the PHHs were infected with HBV serotype D (800 GE/cell). On day 2, fresh medium was replaced without virus or test compound. The final DMSO concentration in the medium was 2%. On Day 4 and 6, fresh medium without test compound was replaced. On Day 8, cell supernatants were harvested, and cell viability was assessed using CCK-8 assay.
Sample testing: qPCR was used to detect the HBV DNA content in the cell culture supernatant; ELISA was used to detect the HBsAg and HBeAg content in the cell culture supernatant. The experimental results of the double-stranded siRNA conjugate of the present invention reducing the levels of HBsAg, HBeAg and DNA in cells are shown in Table 3. Table 3: Experimental results of the double-stranded siRNA conjugates of the present invention in reducing the levels of HBsAg, HBeAg and DNA in cells

The subject of series [1] is Hepatitis B virus. Briefly: Hepatitis B virus AAV mouse experiment, serum HBsAg and HBeAg. Type of series: in vivo, rAAV8-1.3HBV/C57BL/6 Mouse. As to conditions: 3 mg/kg, single subcutaneous dose. The text has this:
Preparation and Grouping of rAAV8-1.3HBV/C57BL/6 Mouse Model: A persistent HBV infection mouse model was established by tail vein injection of rAAV8-1.3HBV (strain C) into C57 mice. The AAV virus injection dose was 1E+11 vg/mouse. Six weeks after injection, blood samples were collected for analysis of serum HBeAg, HBsAg and ALT levels. Based on the quantitative results of serum HBsAg (primary) and HBeAg (secondary), 35 mice were randomly divided into stratified groups, with 5 mice per group.
Test Sample Preparation and Administration: The required dosage of drug powder was calculated based on the purity of each test sample. At a dosing concentration of 0.6 mg/mL, the corresponding saline solution was added and mixed by vortexing until a colorless, transparent liquid was obtained. The day of the first administration was defined as Day 0. All groups received a single subcutaneous dose of 5 mL/kg on Day 0. If blood sampling was required on the day of dosing, it was performed after blood collection. Main Outcome Measures: Mice were weighed and blood was collected once on Days 3, 7, 14, 21 and 28. Serum was separated for HBsAg and HBeAg level determination.
Serum HBsAg and HBeAg Level Determination: After blood collection, serum was separated, diluted with PBS, and submitted for analysis. From each sample, 10 µL of serum was removed and diluted to 500 µL (50-fold dilution) with PBS. Serum HBsAg and HBeAg levels were measured using a Hepatitis B e Antigen Assay Kit and a Hepatitis B Surface Antigen Assay Kit, respectively.

Series [2] concerns Hepatitis B virus. The experiment in a line: HBV-Tg transgenic mouse experiment, serum HBsAg and HBeAg. As to conditions: 3 mg/kg, single subcutaneous dose. Type of series: in vivo, HBV-Tg transgenic mice, C57B/6N-Tg(1.28HBV)/Vst. An excerpt:
Experimental Animals: HBV-Tg transgenic mice, C57B/6N-Tg(1.28HBV)/Vst, SPF-grade males, 6-8 weeks old, weighing 16-20 g, were purchased from Beijing Vitalstar Biotechnology Co.,Ltd., Animal Production Certificate No.: SCXK(Beijing)2019-0002. Animals were housed individually in individual cages by Beijing Vitalstar Biotechnology Co.,Ltd.
Animal Grouping: Based on the quantitative results of serum HBsAg (primary) and HBeAg (secondary), animals were stratified and randomly divided into groups, with 5 animals per group.
Test Sample Preparation and Administration: The required dosage of drug powder was calculated based on the purity of each test sample. At a dosing concentration of 0.6 mg/mL, the corresponding saline solution was added and mixed by vortexing until a colorless, transparent liquid was obtained. The day of the first administration was defined as Day 0. All groups received a single subcutaneous dose of 5 mL/kg on Day 0. If blood sampling was required on the day of dosing, it was performed after blood collection.
Main Outcome Measures: Animals were weighed and blood was collected once on Days 3, 7, 14, 21, 28 and 35. Serum was separated for HBsAg and HBeAg level determination.
Serum HBsAg and HBeAg Level Determination: After blood collection, serum was separated, diluted with PBS, and submitted for analysis. From each sample, 10 µL of serum was removed and diluted to 500 µL (50-fold dilution) with PBS. Serum HBsAg and HBeAg levels were measured using a Hepatitis B e Antigen Assay Kit (Mike Biotech) and a Hepatitis B Surface Antigen Assay Kit (Mike Biotech), respectively.

Where [3] appears, read: No transfection (ad libitum uptake, Day 0), ELISA, read-out: Experimental results EC50 HBeAg.
Setting [4] is: No transfection (ad libitum uptake, Day 0), ELISA, read-out: Experimental results EC50 HBsAg.
[5] abbreviates: No transfection (ad libitum uptake, Day 0), qPCR, read-out: Experimental results EC50 DNA.
Setting [6] is: compared with vehicle control group.

Where two headings read alike, the source gives them in different places.

“S148: control double-stranded siRNA conjugate; sense strand-conjugation group SEQ ID NO 42, antisense SEQ ID NO 33 (sense GUGUGCACUUCGCUUCACA; antisense TGTGAAGCGAAGTGCACACTT; conjugation group on sense strand, position not given here; listed as Albies alba) [reference compound]”: the EC50 in the series with hepatitis B virus (HBV) (setting [3]) turned out to be 7.42 nM; in the series with hepatitis B virus (HBV) (setting [4]), 2.9 nM; in the series with hepatitis B virus (HBV) (setting [5]) it was 5.72 nM.

Consider “S147: double-stranded siRNA conjugate; sense strand-conjugation group SEQ ID NO 41, antisense SEQ ID NO 27 u•G•ugaAYCGaaguGcAcac•u•u (sense GUGUGCACUUCGCUUYACA; antisense UGUGAAYCGAAGUGCACACUU; conjugation group on sense strand, modifications, key not given here; listed as Albies alba)”, for which the “inhibitory activity against HBsAg compared with controls DAW30025 (S149) and DAW30336 (S151)” value in the series with Hepatitis B virus [1] (Figure 2) is on record as “significantly better than that of the controls”. For the same substance, the “inhibitory effect on reducing HBeAg” value with Hepatitis B virus [1] (setting [6]) is listed as “a certain inhibitory effect”. Further, the “inhibitory effects on HBsAg” value in the series on Hepatitis B virus [1] (compared with vehicle control group, Figure 2) is given as “significant inhibitory effects”.

On to “S146: double-stranded siRNA conjugate; sense strand-conjugation group SEQ ID NO 21, antisense SEQ ID NO 27 u•G•ugaAYCGaaguGcAcac•u•u (sense GUGUGCACUUCGCUUCYCA; antisense UGUGAAYCGAAGUGCACACUU; conjugation group on sense strand, modifications, key not given here; listed as Albies alba)”, for which the EC50 was determined as 2.24 nM in the series with hepatitis B virus (HBV) (setting [3]); 0.782 nM in the series with hepatitis B virus (HBV) (setting [4]); 0.737 nM with hepatitis B virus (HBV) (setting [5]); 0.209 nM in the series with hepatitis B virus (HBV) (Transfection (RNAiMAX, Day 4), ELISA, read-out: Experimental results EC50 HBeAg); 0.05 nM in the series on hepatitis B virus (HBV) (Transfection (RNAiMAX, Day 4), ELISA, read-out: Experimental results EC50 HBsAg); 0.082 nM in the series on hepatitis B virus (HBV) (Transfection (RNAiMAX, Day 4), qPCR, read-out: Experimental results EC50 DNA). In addition, in the series with hepatitis B virus (HBV) (statement in words on Table 3), the “inhibitory activity against HBsAg, HBeAg and DNA” value is given as “good inhibitory activity”. In addition, the “inhibitory activity against HBsAg, HBeAg and DNA compared with control S148” value in the series with hepatitis B virus (HBV) (without transfection) is on record as “significantly better than that of the control S148”. The “inhibitory activity on HBsAg compared with control DAW30025 (S149)” value in the series with Hepatitis B virus [2] (Figure 1) was “significantly superior to that of the control group”. The “inhibitory effect on reducing HBeAg” value in the series with Hepatitis B virus [2] (setting [6]) is on record as “a certain inhibitory effect”. Besides, the “inhibitory effects on HBsAg” value in the series on Hepatitis B virus [2] (compared with vehicle control group, Figure 1) was “significant inhibitory effects”.

The EC50 is the concentration giving half of the maximal effect.

Values taken from patent publication EP4706646A1, “NOVEL DOUBLE-STRANDED SIRNA, CONJUGATE THEREOF, AND USE THEREOF” (priority 2023, dated 2024).
